Laboratory results published in patent US20080280851A1 (Clavis Pharma AS, priority 2005, published 2008).
Where two headings read alike, the source gives them in different places. Marks after values point to notes of the source that are not given here.

What was measured:
[1] = test system: Colon 5776 (human colon carcinoma); conditions: mouse, in vivo, ip, 120 mg/kg
Description: (§1) Human colon cancer Co5776 was inserted to Ncr:nu/nu female mice subcutaneously, and treatment started when tumours reached a mean volume of 100 mm^3.

[2] = Maximum tolerated dose, every third day repeated five times; type: in vivo, mice; conditions: administered every third day
Description: This is shown below by the experiments presented in table 1 and table 2 using different mice strains and also different human colon xenografts.

[3] = test system: Colon 6044 (human colon carcinoma); conditions: mouse, in vivo, po
[4] = test system: Colon 5776 (human colon carcinoma); assay: Antitumour activity in human colon xenograft Co5776, IP treatment; conditions: for Toxic deaths (d): D8, 11, 14, 17, 20, 8 mice; for antitumour activity in terms of reductions in tumour growth: gemcitabine 120 mg/kg, elaidic acid (5′)-gemcitabine ester 40 mg/kg, FIG. 1
Description: as §1

[5] = test system: Co6044 (human colon carcinoma); conditions: mouse, in vivo, ip, 120 mg/kg
Description: (§2) Treatment started when the tumours reached a mean volume of 100 mm^3.

[6] = test system: Co6044 (human colon carcinoma); assay: Antitumour activity in human colon cancer xenograft Co6044, IP treatment; conditions: for antitumor effect: IP every third day for five times, ester 40 mg/kg, gemcitabine 120 mg/kg; for Toxic deaths (d): 8 mice
Description: as §2

[7] = test system: Colon 6044 (human colon carcinoma); assay: Antitumour activity in Co6044 after oral administration, different dosing schedules (Table 4); type: in vivo, NCR: nu/nu female mice; conditions: for BWC / Toxic deaths (d) / Optimum T/C (on day): Oral; for Toxic deaths (d): 7 mice
Description: Antitumour Activity of Elaidic Acid (5′)-Gemcitabine Ester in Co6044 after Oral Administration

[8] = test system: Colon 6044 (human colon carcinoma); assay: Antitumour activity in Co6044 after oral administration (Table 3); conditions: for BWC D13 / Toxic deaths (d) / Optimum T/C (on day): Oral, Q3 × 5
[9] = IP, 120 mg/kg, D8, 11, 14, 17, 20
[10] = IP, 40 mg/kg, D8, 11, 14, 17, 20

Nc1ccn([C@@H]2O[C@H](CO)[C@@H](O)C2(F)F)c(=O)n1 [Gemcitabine, 2′,2′-difluorodeoxycytidine, reference compound]
BWC (body weight change) [1]: −5% | maximum tolerated dose [2]: approximately 120 mg/kg per injection | BWC D13 ([3]; 120 mg/kg): −16% | BWC D13 ([3]; 180 mg/kg): −22% | BWC D13 ([3]; 240 mg/kg): −21% | Optimum T/C (volume of treated tumour versus volume of control tumour) ([4]; 120 mg/kg, D8, 11, 14, 17, 20): 17* % | Toxic deaths (d) ([4]; 120 mg/kg, death on day 18): 1 (18) | antitumour activity in terms of reductions in tumour growth [4]: high antitumour activity | BWC D8-15 (body weight change) [5]: −3 | antitumor effect [6]: Excellent antitumor effect | Optimum T/C [6, 9]: 15* % | Toxic deaths (d) [6, 9]: 0

CCCCCCCC/C=C/CCCCCCCC(=O)OC[C@H]1O[C@@H](n2ccc(N)nc2=O)C(F)(F)[C@@H]1O [Elaidic acid (5′)-gemcitabine ester, elaidic acid (5′)-gemcitabine ester]
BWC ([7]; 5 mg/kg, D7-11): −3% | Toxic deaths (d) ([7]; 5 mg/kg, D7-11): 0 | Optimum T/C (on day) ([7]; 5 mg/kg, D7-11, on day 28): 10 (28)* % | BWC ([7]; 10 mg/kg, D7, 10, 13, 16, 19): −1% | Toxic deaths (d) ([7]; 10 mg/kg, D7, 10, 13, 16, 19): 0 | Optimum T/C (on day) ([7]; 10 mg/kg, D7, 10, 13, 16, 19, on day 24): 35 (24)* % | BWC ([7]; 10 mg/kg, D7-11): −5% | Toxic deaths (d) ([7]; 10 mg/kg, D7-11): 0 | Optimum T/C (on day) ([7]; 10 mg/kg, D7-11, on day 17): 8 (17)* % | BWC ([7]; 15 mg/kg, D7, 10, 13, 16, 19): −1% | Toxic deaths (d) ([7]; 15 mg/kg, D7, 10, 13, 16, 19): 0 | Optimum T/C (on day) ([7]; 15 mg/kg, D7, 10, 13, 16, 19, on day 24): 27 (24)* % | BWC ([7]; 20 mg/kg, D7, 10, 13, 16, 19): −3% | Toxic deaths (d) ([7]; 20 mg/kg, D7, 10, 13, 16, 19, death on day 17): 1 (17) | Optimum T/C (on day) ([7]; 20 mg/kg, D7, 10, 13, 16, 19, on day 24): 16 (24)* % | BWC ([7]; 50 mg/kg, D7, 14): 0% | Toxic deaths (d) ([7]; 50 mg/kg, D7, 14): 0 | Optimum T/C (on day) ([7]; 50 mg/kg, D7, 14, on day 17): 22 (17)* % | BWC ([7]; 100 mg/kg, D7, 14): −4% | Toxic deaths (d) ([7]; 100 mg/kg, D7, 14, death on day 20): 1 (20) | Optimum T/C (on day) ([7]; 100 mg/kg, D7, 14, on day 24): 4 (24)* % | antitumour activity after oral administration ([7]; oral, all tested schedules): High dose dependent activity | significance of antitumour activity ([7]; oral, all the tested schedules): Significant antitumour activity | maximum tolerated dose [2]: ~40 mg/kg per injection | BWC (body weight change) ([4]; 40 mg/kg, D8, 11, 14, 17, 20): −4% | Optimum T/C (volume of treated tumour versus volume of control tumour) ([4]; 40 mg/kg, D8, 11, 14, 17, 20): 17* % | Toxic deaths (d) ([4]; 40 mg/kg): 0 | antitumour activity in terms of reductions in tumour growth [4]: high antitumour activity | antitumor effect [6]: Excellent antitumor effect | Optimum T/C [6, 10]: 19* % | Toxic deaths (d) [6, 10]: 0 | BWC D8-15 (body weight change) ([6]; IP, 40 mg/kg, D8, 11, 14, 17, 20, D8-15): −1 | BWC D13 ([8]; 40 mg/kg): −7% | Toxic deaths (d) ([8]; 40 mg/kg, deaths on day 15): 2/8 (15) | Optimum T/C (on day) ([8]; 40 mg/kg, on day 27): 5 (27)* % | Optimum T/C (on day) ([8]; 60 mg/kg): Toxic | BWC D13 ([8]; 60 mg/kg): −9% | Toxic deaths (d) ([8]; 60 mg/kg, deaths on days 12-24): 6/8 (12-24) | Optimum T/C (on day) ([8]; 80 mg/kg): Toxic | BWC D13 ([8]; 80 mg/kg): −6% | Toxic deaths (d) ([8]; 80 mg/kg, deaths on days 16-22): 6/8 (16-22) | antitumour activity after oral administration ([8]; oral, 40 mg/kg): highly active | tolerability after oral administration ([8]; oral, 40 mg/kg): tolerable
